What was measured:
[1] = target: GDP-bound HRAS wild-type protein (Homo sapiens, UniProt P01112); test: Binding to HRAS by surface plasmon resonance (SPR), Single Cycle Kinetics; conditions: SPR; KD ratio class
[2] = target: GDP-bound KRAS wild-type protein (Homo sapiens, UniProt P01116); test: Binding to KRAS by surface plasmon resonance (SPR), Single Cycle Kinetics; conditions: SPR, Single Cycle Kinetics; GDP-bound KRAS wild-type protein
[3] = target: GDP-bound NRAS wild-type protein (Homo sapiens, UniProt P01111); test: Binding to NRAS by surface plasmon resonance (SPR), Single Cycle Kinetics; conditions: SPR; KD ratio class
[4] = test system: human lung cancer strain NCI-H441; conditions: read-out: NCI-H441 IC50; NCI-H441 cells, 4 days, CellTiter-Glo

Sequence of GDP-bound NRAS wild-type protein (P01111 whole entry): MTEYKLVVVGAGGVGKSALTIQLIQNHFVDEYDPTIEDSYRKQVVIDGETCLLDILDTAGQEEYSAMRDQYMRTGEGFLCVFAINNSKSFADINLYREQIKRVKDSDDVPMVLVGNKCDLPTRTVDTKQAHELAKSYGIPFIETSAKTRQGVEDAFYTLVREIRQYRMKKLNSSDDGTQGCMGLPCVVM
Sequence of GDP-bound HRAS wild-type protein (P01112 whole entry): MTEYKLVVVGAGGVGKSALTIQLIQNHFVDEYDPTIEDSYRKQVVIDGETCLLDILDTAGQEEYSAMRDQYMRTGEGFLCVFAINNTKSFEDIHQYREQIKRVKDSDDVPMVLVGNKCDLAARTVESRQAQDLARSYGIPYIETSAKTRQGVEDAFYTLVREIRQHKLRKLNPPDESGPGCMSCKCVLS

Compound	HRAS/KRAS (ratio of KD value for GDP-bound HRAS wild-type protein to KD value for KRAS) [1]	Kd [2]	NRAS/KRAS (ratio of KD value for GDP-bound NRAS wild-type protein to KD value for KRAS) [3]	IC50 [4]
CCO[C@@H]1C[C@H]2C(=O)NC3(CCC3)C(=O)N(C)[C@@H](C3CCCC3)C(=O)N(C)[C@H](C(=O)N(C)C)CC(=O)N(C)[C@@H](CC3CCCC3)C(=O)N[C@@H]([C@@H](C)CC)C(=O)N(C)CC(=O)N(C)[C@H]3C/C=C\CCN(C3=O)[C@@H](Cc3ccc(C(F)(F)F)cc3)C(=O)N(C)CC(=O)N[C@@H](CCc3ccc4sccc4c3)C(=O)N2C1 [PP1261]	A (a compound having 10 or more and less than 20 is denoted as A)	0.44 nM	A (a compound having 10 or more and less than 20 is denoted as A)	76.8 nM
CCOC[C@H]1C(=O)N[C@@H]([C@@H](C)CC)C(=O)N(C)CC(=O)N(C)[C@H]2C/C=C\CCN(C2=O)[C@@H](Cc2ccc(C(F)(F)F)cc2)C(=O)N(C)CC(=O)N[C@@H](CCc2cc(F)c(C(F)(F)F)c(F)c2)C(=O)N2C[C@H](OCC)C[C@H]2C(=O)NC2(CCC2)C(=O)N(C)[C@@H](C2CCCC2)C(=O)N(C)[C@H](C(=O)N(C)C)CC(=O)N1C [PP1266]	A (a compound having 10 or more and less than 20 is denoted as A)	0.045 nM	A (a compound having 10 or more and less than 20 is denoted as A)	12.2 nM
CCO[C@@H]1C[C@H]2C(=O)NC3(CCC3)C(=O)N(C)[C@@H](C3CCCC3)C(=O)N(C)[C@H](C(=O)N(C)C)CC(=O)N(C)[C@@H](COCC(F)(F)F)C(=O)N[C@@H]([C@@H](C)CC)C(=O)N(C)CC(=O)N(C)[C@H]3C/C=C\CCN(C3=O)[C@@H](Cc3ccc(C(F)(F)F)cc3)C(=O)N(C)CC(=O)N[C@@H](CCc3cc(F)c(C(F)(F)F)c(F)c3)C(=O)N2C1 [PP1267]	A (a compound having 10 or more and less than 20 is denoted as A)	0.046 nM	A (a compound having 10 or more and less than 20 is denoted as A)	10.8 nM
CCO[C@@H]1C[C@H]2C(=O)NC3(CCC3)C(=O)N(C)[C@@H](C3CCCC3)C(=O)N(C)[C@H](C(=O)N(C)C)CC(=O)N(C)[C@@H](COC3CC3)C(=O)N[C@@H]([C@@H](C)CC)C(=O)N(C)CC(=O)N(C)[C@H]3C/C=C\CCN(C3=O)[C@@H](Cc3ccc(C(F)(F)F)cc3)C(=O)N(C)CC(=O)N[C@@H](CCc3cc(F)c(C(F)(F)F)c(F)c3)C(=O)N2C1 [PP1268]	A (a compound having 10 or more and less than 20 is denoted as A)	0.045 nM	A (a compound having 10 or more and less than 20 is denoted as A)	12.1 nM
CC[C@H](C)[C@@H]1NC(=O)[C@H](C)N(C)C(=O)C[C@@H](C(=O)N(C)C)N(C)C(=O)[C@H](C2CCCC2)N(C)C(=O)C2(CCC2)NC(=O)[C@@H]2CCCN2C(=O)[C@H](CCc2cc(F)c(C(F)(F)F)c(F)c2)NC(=O)CN(C)C(=O)[C@H](Cc2ccc(C(F)(F)F)cc2)N2CC/C=C\C[C@@H](C2=O)N(C)C(=O)CN(C)C1=O [PP1271]	A (a compound having 10 or more and less than 20 is denoted as A)	0.054 nM	AA (a compound having 20 or more is denoted as AA)	90.7 nM
CCO[C@@H]1C[C@H]2C(=O)NC3(CCCC3)C(=O)N(C)[C@@H](C3CCCC3)C(=O)N(C)[C@H](C(=O)N(C)C)CC(=O)N(C)[C@@H](CC)C(=O)N[C@@H]([C@@H](C)CC)C(=O)N(C)CC(=O)N(C)[C@H]3C/C=C\CCN(C3=O)[C@@H](Cc3ccc(C(F)(F)F)cc3)C(=O)N(C)CC(=O)N[C@@H](CCc3cc(F)c(C(F)(F)F)c(F)c3)C(=O)N2C1 [PP1276]	B (a compound having 3 or more and less than 10 is denoted as B)	0.066 nM	A (a compound having 10 or more and less than 20 is denoted as A)	20.8 nM
CCO[C@@H]1C[C@H]2C(=O)NC3(CCC3)C(=O)N(C)[C@@H](C3CCCC3)C(=O)N(C)[C@H](C(=O)N3CCCC3)CC(=O)N(C)[C@@H](CC3CC3)C(=O)N[C@@H]([C@@H](C)CC)C(=O)N(C)CC(=O)N(C)[C@H]3C/C=C\CCN(C3=O)[C@@H](Cc3ccc(C(F)(F)F)cc3)C(=O)N(C)CC(=O)N[C@@H](CCc3cc(F)c(C(F)(F)F)c(F)c3)C(=O)N2C1 [PP1296]	A (a compound having 10 or more and less than 20 is denoted as A)	0.12 nM	AA (a compound having 20 or more is denoted as AA)	14.7 nM
CCC[C@H]1C(=O)N[C@@H]([C@@H](C)CC)C(=O)N(C)CC(=O)N(C)[C@H]2C/C=C\CCN(C2=O)[C@@H](Cc2ccc(C(F)(F)F)cc2)C(=O)N(C)CC(=O)N[C@@H](CCc2cc(F)c(C(F)(F)F)c(F)c2)C(=O)N2C[C@H](OCC)C[C@H]2C(=O)NC2(CCC2)C(=O)N(C)[C@@H](C2CCCC2)C(=O)N(C)[C@H](C(=O)N2CCCC2)CC(=O)N1C [PP1299]	A (a compound having 10 or more and less than 20 is denoted as A)	0.14 nM	A (a compound having 10 or more and less than 20 is denoted as A)	11 nM
CCCC[C@H]1C(=O)N[C@@H]([C@@H](C)CC)C(=O)N(C)CC(=O)N(C)[C@H]2C/C=C\CCN(C2=O)[C@@H](Cc2ccc(C(F)(F)F)cc2)C(=O)N(C)CC(=O)N[C@@H](CCc2cc(F)c(C(F)(F)F)c(F)c2)C(=O)N2C[C@H](OCC)C[C@H]2C(=O)NC2(CCCC2)C(=O)N(C)[C@@H](C2CCCC2)C(=O)N(C)[C@H](C(=O)N(C)C)CC(=O)N1C [PP1397]	A (a compound having 10 or more and less than 20 is denoted as A)	0.073 nM	A (a compound having 10 or more and less than 20 is denoted as A)	3.7 nM
CCCOC[C@H]1C(=O)N[C@@H]([C@@H](C)CC)C(=O)N(C)CC(=O)N(C)[C@H]2C/C=C\CCN(C2=O)[C@@H](Cc2ccc(C(F)(F)F)cc2)C(=O)N(C)CC(=O)N[C@@H](CCc2cc(F)c(C(F)(F)F)c(F)c2)C(=O)N2C[C@H](OCC)C[C@H]2C(=O)NC2(CC(C)(C)C2)C(=O)N(C)[C@@H](C2CCCC2)C(=O)N(C)[C@H](C(=O)N(C)C)CC(=O)N1C [PP1398]	A (a compound having 10 or more and less than 20 is denoted as A)	0.032 nM	A (a compound having 10 or more and less than 20 is denoted as A)	2.3 nM
CCO[C@@H]1C[C@H]2C(=O)NC3(CCC3)C(=O)N(C)[C@@H](C3CCCC3)C(=O)N(C)[C@H](C(=O)N(C)C)CC(=O)N(C)[C@@H](CC3CC3)C(=O)N[C@@H]([C@@H](C)CC)C(=O)N(C)CC(=O)N(C)[C@H]3C/C=C\CCN(C3=O)[C@@H](Cc3ccc(C)cc3)C(=O)N(C)CC(=O)N[C@@H](CCc3cc(F)c(C(F)(F)F)c(F)c3)C(=O)N2C1 [PP1407]	A (a compound having 10 or more and less than 20 is denoted as A)	0.074 nM	A (a compound having 10 or more and less than 20 is denoted as A)	18.7 nM
CCO[C@@H]1C[C@H]2C(=O)NC3(CCC3)C(=O)N(C)[C@@H](C3CCCC3)C(=O)N(C)[C@H](C(=O)N3CCCC3)CC(=O)N(C)[C@@H](CC)C(=O)N[C@@H]([C@@H](C)CC)C(=O)N(C)CC(=O)N(C)[C@H]3C/C=C\CCN(C3=O)[C@@H](CC3CCC(F)(F)CC3)C(=O)N(C)CC(=O)N[C@@H](CCc3cc(F)c(C(F)(F)F)c(F)c3)C(=O)N2C1 [PP1442]	A (a compound having 10 or more and less than 20 is denoted as A)	0.13 nM	A (a compound having 10 or more and less than 20 is denoted as A)	48.3 nM
CCO[C@@H]1C[C@H]2C(=O)NC3(CCC3)C(=O)N(C)[C@@H](C3CCCC3)C(=O)N(C)[C@H](C(=O)N(C)C)CC(=O)N(C)[C@@H](CC3CC3)C(=O)N[C@@H]([C@@H](C)CC)C(=O)N(C)CC(=O)N(C)[C@H]3C/C=C\CCN(C3=O)[C@@H](CC3CCC(F)(F)CC3)C(=O)N(C)CC(=O)N[C@@H](CCc3cc(F)c(C(F)(F)F)c(F)c3)C(=O)N2C1 [PP1447]	A (a compound having 10 or more and less than 20 is denoted as A)	0.12 nM	A (a compound having 10 or more and less than 20 is denoted as A)	28.9 nM
CCC[C@H]1C(=O)N[C@@H]([C@@H](C)CC)C(=O)N(C)CC(=O)N(C)[C@H]2C/C=C\CCN(C2=O)[C@@H](CC2CCC(F)(F)CC2)C(=O)N(C)CC(=O)N[C@@H](CCc2cc(F)c(C(F)(F)F)c(F)c2)C(=O)N2C[C@H](OCC)C[C@H]2C(=O)NC2(CCC2)C(=O)N(C)[C@@H](C2CCCC2)C(=O)N(C)[C@H](C(=O)N(C)C)CC(=O)N1C [PP1450]	A (a compound having 10 or more and less than 20 is denoted as A)	0.14 nM	A (a compound having 10 or more and less than 20 is denoted as A)	50.1 nM
